In patent publication US20220362273A1 (priority 2021, published 2022):

Assays:
Settings in all cases: mouse, in vivo
iNOS = test system: iNOS; parameters: species or system mice
NM-challenged skin = test system: NM-challenged skin; parameters: species or system mice
[1] = test system: skin exposed to nitrogen mustard (NM); parameters: species or system C57Bl/6 mice
[2] = test system: mice challenged with topical nitrogen mustard (NM)

In the case of `C=C1CC[C@H](O)C/C1=C/C=C1\CCC[C@]2(C)[C@@H]([C@H](C)CCCC(C)(C)O)CC[C@@H]12` [25(OH)D, 25-hydroxyvitamin D3], the “iNOS levels (relative iNOS gene expression)” value (iNOS) is reported as “responded”.

For `CC(=O)S[C@@H]1CC2=CC(=O)CC[C@]2(C)[C@H]2CC[C@@]3(C)[C@@H](CC[C@@]34CCC(=O)O4)[C@H]12` [spironolactone], the “inflammatory cells in skin” value (NM-challenged skin) was “significant reduction”, the skin thickness (NM-challenged skin) was “decrease in thickness” and the “skin thickness by bi-fold caliper measurements” value [1] was “showed efficacy in reducing skin thickness”. For the same compound, the “lesion area at day 5” value [2] was “reduce lesion area”, the lesion size [2] was “dose dependent reduction” and the systemic toxicity [2] was “sustained systemic toxicity”.
